{"source": "patent US20060252807A1", "about": "“Novel ortho-terphenyl inhibitors of p38 kinase and methods of treating inflammatory disorders” (Kalypsys, Inc., priority 2005, published 2006)", "note": "pIC50: −log10 of the molar value.", "data": [{"molecular_target": "T1, active p38 alpha enzyme (Upstate Biotechnology) (Homo sapiens, UniProt Q16539)", "T1 construct": "purchased Upstate Biotechnology", "T1 sequence (Q16539 whole entry)": "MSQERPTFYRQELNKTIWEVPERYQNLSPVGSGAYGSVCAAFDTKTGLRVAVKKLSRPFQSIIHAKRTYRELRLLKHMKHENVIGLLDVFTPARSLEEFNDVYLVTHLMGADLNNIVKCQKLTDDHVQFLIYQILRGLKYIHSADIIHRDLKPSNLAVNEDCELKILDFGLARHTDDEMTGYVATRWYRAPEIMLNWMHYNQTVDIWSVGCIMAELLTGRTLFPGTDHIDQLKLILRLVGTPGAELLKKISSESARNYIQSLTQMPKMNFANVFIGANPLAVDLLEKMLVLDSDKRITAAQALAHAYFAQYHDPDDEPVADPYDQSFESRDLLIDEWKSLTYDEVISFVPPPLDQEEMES", "assay": "p38α biochemical assay (ATP turnover, luminescent detection, Cambrex PKlight)", "conditions": "p38α biochemical assay, Table 1 Biological Activity", "outline": "(§1)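 In this kinase reaction, p38α used MapkapK2 as phosphorylation substrate at low ATP (1.4 uM final) over 2 hours at 30C, and activity was followed as ATP turnover by luminescence.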", "values": [{"smiles": "COc1cc(C(=O)NCc2nc(-c3ccc(F)cc3)c(-c3nc(C(=O)NC(C)C)cs3)o2)cc(OC)c1O", "note": "[Example 266]", "pIC50": "≥ 6.00"}, {"smiles": "CC(C)NC(=O)c1csc(-c2oc(CNC(=O)C=O)nc2-c2ccc(F)cc2)n1", "note": "[Example 99]", "pIC50": "< 6.00"}, {"smiles": "CC(C)NC(=O)c1csc(-c2oc(CNC(=O)c3ccc(F)c(F)c3)nc2-c2ccc(F)cc2)n1", "note": "[Example 161]", "pIC50": "< 6.00"}, {"smiles": "CC(C)NC(=O)c1csc(-c2c(-c3ccc(F)cc3)noc2CNC(=O)c2cc(Cl)c(O)c(Cl)c2)n1", "note": "[Example 756]", "pIC50": "< 6.00"}, {"smiles": "COc1ccc(Br)c(C(=O)NCc2onc(-c3ccc(F)cc3)c2-c2nc(C(=O)NC(C)C)cs2)c1", "note": "[Example 791]", "pIC50": "< 6.00"}, {"smiles": "CC(C)NC(=O)c1csc(-c2oc(CNC(=O)c3cc(Cl)c(O)c(Cl)c3)nc2-c2ccc(F)cc2)n1", "note": "[Example 281]", "pIC50": "≥ 6.00"}, {"smiles": "CC(C)NC(=O)c1csc(-c2oc(CNC(=O)CC3Cc4ccccc4C3)nc2-c2ccc(F)cc2)n1", "note": "[Example 203]", "pIC50": "< 6.00"}, {"smiles": "Cc1ccc(C)c(C(=O)NCc2nc(-c3ccc(F)cc3)c(-c3nc(C(=O)NC(C)C)cs3)o2)c1", "note": "[Example 137]", "pIC50": "< 6.00"}, {"smiles": "CC(C)NC(=O)c1csc(-c2oc(CNC(=O)c3ccccc3Cl)nc2-c2ccc(F)cc2)n1", "note": "[Example 151]", "pIC50": "≥ 6.00"}, {"smiles": "CC(C)NC(=O)c1csc(-c2c(-c3ccc(F)cc3)noc2CNC(=O)c2cc(F)c(F)cc2Cl)n1", "note": "[Example 733]", "pIC50": "< 6.00"}, {"smiles": "CC(C)NC(=O)c1csc(-c2c(-c3ccc(F)cc3)noc2CNC(=O)c2cc(F)c(Cl)cc2F)n1", "note": "[Example 734]", "pIC50": "< 6.00"}, {"smiles": "CC(C)NC(=O)c1csc(-c2oc(CN3CCN(C(=O)c4c(F)cccc4Cl)CC3)nc2-c2ccc(F)cc2)n1", "note": "[Example 437]", "pIC50": "< 6.00"}, {"smiles": "CC(C)NC(=O)c1csc(-c2oc(CNC(=O)c3cccc4ccccc34)nc2-c2ccc(F)cc2)n1", "note": "[Example 194]", "pIC50": "≥ 6.00"}, {"smiles": "CC(C)NC(=O)c1csc(-c2oc(CN3CCN(C(=O)c4ccncc4)CC3)nc2-c2ccc(F)cc2)n1", "note": "[Example 350]", "pIC50": "≥ 6.00"}, {"smiles": "CC(C)NC(=O)c1csc(-c2c(-c3ccc(F)cc3)noc2CNC(=O)c2ccc(Br)cc2)n1", "note": "[Example 744]", "pIC50": "< 6.00"}, {"smiles": "CC(C)NC(=O)c1csc(-c2oc(CN3CCN(C(=O)/C=C/c4ccccc4)CC3)nc2-c2ccc(F)cc2)n1", "note": "[Example 368]", "pIC50": "< 6.00"}, {"smiles": "Cc1onc(-c2ccc(Cl)cc2)c1-c1ccn(C(=O)NC2CC2)n1", "note": "[Example 7, 3-|3-(4-Chloro-phenyl)-5-methyl-isoxazol-4-yl|-pyrazole-1-carboxylic acid cyclopropylamide]", "pIC50": "< 6.00"}, {"smiles": "CC(C)NC(=O)c1csc(-c2oc(CN3CCN(C(=O)/C=C/c4ccccc4O)CC3)nc2-c2ccc(F)cc2)n1", "note": "[Example 403]", "pIC50": "≥ 6.00"}, {"smiles": "COc1ccc(O)c(C(=O)N2CCN(Cc3nc(-c4ccc(F)cc4)c(-c4nc(C(=O)NC(C)C)cs4)o3)CC2)c1", "note": "[Example 424]", "pIC50": "≥ 6.00"}, {"smiles": "COc1ccc2cc(C(C)C(=O)NCc3onc(-c4ccc(F)cc4)c3-c3nc(C(=O)NC(C)C)cs3)ccc2c1", "note": "(centres unmarked) [Example 788]", "pIC50": "< 6.00"}, {"smiles": "Cc1cccc(C(=O)NCc2nc(-c3ccc(F)cc3)c(-c3nc(C(=O)NC(C)C)cs3)o2)c1", "note": "[Example 121]", "pIC50": "< 6.00"}, {"smiles": "CCNC(=O)c1csc(-c2sc(C)nc2-c2ccc(F)cc2)n1", "note": "[Example 48, 4′-(4-Fluoro-phenyl)-2′-methyl-|2,5′|bithiazolyl-4-carboxylic acid ethylamide]", "pIC50": "≥ 6.00"}, {"smiles": "CC(C)NC(=O)c1csc(-c2oc(CN3CCN(C(=O)c4ccc5ccccc5c4O)CC3)nc2-c2ccc(F)cc2)n1", "note": "[Example 482]", "pIC50": "< 6.00"}]}, {"molecular_target": "T1, active p38 alpha enzyme (Upstate Biotechnology)", "assay": "p38α biochemical assay (ATP turnover, luminescent detection, Cambrex PKlight)", "conditions": "p38α kinase; Table 1 Biological Activity", "outline": "as §1", "values": [{"smiles": "Cc1ccccc1CCC(=O)N1CCC(c2[nH]nc(-c3ccc(F)cc3)c2-c2nc(C(=O)NC(C)C)cs2)CC1", "note": "[Example 886]", "pIC50": "< 6.00"}, {"smiles": "CC(C)NC(=O)c1csc(-c2oc(CN3CCC(C(N)=O)CC3)nc2-c2ccc(F)cc2)n1", "note": "[Example 1219]", "pIC50": "< 6.00"}, {"smiles": "CC(C)NC(=O)c1csc(-c2c(-c3ccc(F)cc3)noc2CN2CCCCC2CCO)n1", "note": "(centres unmarked) [Example 1548]", "pIC50": "< 6.00"}, {"smiles": "CC(C)NC(=O)c1csc(-c2oc(CN3CCN(CCc4ccccc4)CC3)nc2-c2ccc(F)cc2)n1", "note": "[Example 1265]", "pIC50": "< 6.00"}, {"smiles": "CC(C)NC(=O)c1csc(-c2oc(CNCc3ccc(Cl)cc3Cl)nc2-c2ccc(F)cc2)n1", "note": "[Example 1169]", "pIC50": "< 6.00"}, {"smiles": "CC(C)NC(=O)c1csc(-c2c(-c3ccc(F)cc3)noc2CNc2ncccc2OCc2ccccc2)n1", "note": "[Example 1696]", "pIC50": "< 6.00"}, {"smiles": "COc1ccccc1NCc1onc(-c2ccc(F)cc2)c1-c1nc(C(=O)NC(C)C)cs1", "note": "[Example 1649]", "pIC50": "< 6.00"}, {"smiles": "CC(C)NC(=O)c1csc(-c2oc(CNc3ccc(F)c(C(F)(F)F)c3)nc2-c2ccc(F)cc2)n1", "note": "[Example 1365]", "pIC50": "< 6.00"}, {"smiles": "CC(C)NC(=O)c1csc(-c2oc(CNCC3CCCO3)nc2-c2ccc(F)cc2)n1", "note": "(centres unmarked) [Example 1078]", "pIC50": "< 6.00"}, {"smiles": "COc1cc(Cl)ccc1C(=O)N1CCC(c2[nH]nc(-c3ccc(F)cc3)c2-c2nc(C(=O)NC(C)C)cs2)CC1", "note": "[Example 953]", "pIC50": "< 6.00"}, {"smiles": "Cc1nc(-c2ccc(F)cc2)c(-c2nc(C(=O)NCc3ccc(F)cc3)cs2)s1", "note": "[Example 1759]", "pIC50": "≥ 6.00"}, {"smiles": "COc1ccc(CCNC(=O)c2csc(-c3c(-c4ccc(F)cc4)n[nH]c3C3CCNCC3)n2)cc1", "note": "[Example 2122]", "pIC50": "< 6.00"}, {"smiles": "CC(C)NC(=O)c1csc(-c2c(-c3ccc(F)cc3)n[nH]c2C2CCN(C(=O)C3CCCCN3C(=O)OC(C)(C)C)CC2)n1", "note": "(centres unmarked) [Example 1025]", "pIC50": "< 6.00"}, {"smiles": "CC(C)NC(=O)c1csc(-c2c(-c3ccc(F)cc3)n[nH]c2C2CCN(C(=O)c3ccc(F)c([N+](=O)[O-])c3)CC2)n1", "note": "[Example 951]", "pIC50": "< 6.00"}, {"smiles": "Cc1nc(-c2ccc(F)cc2)c(-c2nc(C(=O)NC3CC3)cs2)s1", "note": "[Example 1709]", "pIC50": "< 6.00"}, {"smiles": "COc1cccc(N2CCN(Cc3onc(-c4ccc(F)cc4)c3-c3nc(C(=O)NC(C)C)cs3)CC2)c1", "note": "[Example 1597]", "pIC50": "< 6.00"}, {"smiles": "CC(C)NC(=O)c1csc(-c2c(-c3ccc(Cl)cc3)ncn2C2CCNCC2)n1", "note": "[Example 2162, 2-|5-(4-Chloro-phenyl)-3-piperidin-4-yl-3H-imidazol-4-yl|-thiazole-4-carboxylic acid isopropylamide]", "pIC50": "< 6.00"}, {"smiles": "Cc1nc(-c2ccc(F)cc2)c(-c2nc(C(=O)N3CCN(CCc4ccccc4)CC3)cs2)s1", "note": "[Example 1916]", "pIC50": "< 6.00"}, {"smiles": "CC(C)NC(=O)c1csc(-c2c(-c3ccc(F)cc3)noc2CNCCCO)n1", "note": "[Example 1395]", "pIC50": "< 6.00"}, {"smiles": "CC1(C)CC(NC(=O)c2csc(-c3c(-c4ccc(F)cc4)n[nH]c3C3CCNCC3)n2)CC(C)(C)N1", "note": "[Example 2129]", "pIC50": "< 6.00"}, {"smiles": "Cc1nc(-c2ccc(F)cc2)c(-c2nc(C(=O)NC(C)C(C)C)cs2)s1", "note": "(centres unmarked) [Example 1724]", "pIC50": "< 6.00"}, {"smiles": "CC(C)NC(=O)c1csc(-c2oc(CNCc3ccccc3F)nc2-c2ccc(F)cc2)n1", "note": "[Example 1105]", "pIC50": "< 6.00"}, {"smiles": "CCOc1ccccc1NCc1onc(-c2ccc(F)cc2)c1-c1nc(C(=O)NC(C)C)cs1", "note": "[Example 1665]", "pIC50": "< 6.00"}, {"smiles": "Cc1nc(-c2ccc(F)cc2)c(-c2nc(C(=O)Nc3cc(C(F)(F)F)cc(C(F)(F)F)c3)cs2)s1", "note": "[Example 2023]", "pIC50": "< 6.00"}, {"smiles": "CC1CC(C)CN(Cc2onc(-c3ccc(F)cc3)c2-c2nc(C(=O)NC(C)C)cs2)C1", "note": "(centres unmarked) [Example 1531]", "pIC50": "< 6.00"}, {"smiles": "COc1cc(C(=O)N2CCC(c3[nH]nc(-c4ccc(F)cc4)c3-c3nc(C(=O)NC(C)C)cs3)CC2)cc(Cl)n1", "note": "[Example 955]", "pIC50": "< 6.00"}, {"smiles": "CC(C)NC(=O)c1csc(-c2c(-c3ccc(F)cc3)noc2CNCCO)n1", "note": "[Example 1375]", "pIC50": "< 6.00"}]}]}
